Assay results taken from patent US20140142094A1, “KINASE INHIBITORS” (ICAHN SCHOOL OF MEDICINE AT MOUNT SINAI, priority 2011, published 2014).

What was measured:
[1] = tested on: K562 (chronic myelogenous leukemia; leukemia cell line +ve for Bcr-Abl); assay: Cytotoxicity on K562 cancer cell line; type: cell-based; conditions: Homo sapiens; K562 cells, 96 h treatment
Method: (§1) The effect of the compounds described herein on tumor cells was determined by the assay described by Latham et al., Oncogene 12:827-837 (1996). Tumor cells K562 (chronic myelogenous leukemia; leukemia cell line +ve for Bcr-Abl) or DU145 (prostate cancer) were plated in 12-well dishes at a cell density of 2.5×10^4 cells per well. The plated cells were treated 24h. later with a DMSO solution of a compound as described herein at multiple concentrations ranging from 0.01 μM to 100 μM. The plates were examined 96 h. later under an inverted microscope, Olympus CK-2 using a 10× objective, and compound activity was noted by physical observation. When necessary, the total number of viable cells was determined by trypsinizing the wells and counting the number of viable cells, as determined by trypan blue exclusion, using a hemacytometer.

[2] = tested on: DU145 (prostate cancer); assay: Cytotoxicity on DU145 cancer cell line; type: cell-based; conditions: Homo sapiens, DU-145; DU145 cells, 96 h treatment
Method: as §1

Structure (SMILES) | melting point [°C] | IC50 [1] [µM] | IC50 [2] [µM]
O=C1Nc2cnc(Nc3ccc(N4CCOCC4)cc3)nc2S/C1=C/c1ccc([N+](=O)[O-])cc1 [Compound 1k, (E)-2-((4-Morpholinophenyl)amino)-7-(4-nitrobenzylidene)-5H-pyrimido[4,5-b][1,4]thiazin-6(7H)-one] | 302 to 304 | 50 to 100 | 50 to 100
CN1CCN(c2ccc(Nc3ncc4c(n3)S/C(=C/c3ccc(N)cc3)C(=O)N4)cc2)CC1 [Compound 1h, (E)-7-(4-Aminobenzlidene)-2-(4-(4-methylpiperazin-1-yl)phenylamino)-5H-pyrimido[4,5-b][1,4]thiazin-6(7H)-one] |  | < 1 | 1 to 10
CN1CCN(c2ccc(Nc3ncc4c(n3)S/C(=C/c3ccc(C(N)=O)cc3)C(=O)N4)cc2)CC1 [Compound 1p, (E)-4-((2-((4-(4-Methylpiperazin-1-yl)phenyl)amino)-6-oxo-5H-pyrimido[4,5-b][1,4]thiazin-7(6H)-ylidene)methyl)benzamide] | 294 to 298 | 1 to 10 | 1 to 10
CN1CCN(c2ccc(Nc3ncc4c(n3)S/C(=C/c3ccc(OCc5ccccc5)cc3)C(=O)N4)cc2)CC1 [Compound 1o, (E)-7-(4-(Benzyloxy)benzylidene)-2-((4-(4-methylpiperazin-1-yl)pheny)amino)-5H-pyrimido[4,5-b][1,4]thiazin-6(7H)-one] | 238 to 240 | < 1 | < 1
O=C1CSc2nc(SCc3c(Cl)cccc3Cl)ncc2N1 [Compound 4d, 2-(2,6-Dichlorobenzylthio)-5H-pyrimido[4,5-b][1,4]thiazin-6(7H)-one] | 242 to 244 | 25 to 50 | 25 to 50
CC(=O)N(c1ccc(N2CCN(C)CC2)cc1)c1ncc2c(n1)S/C(=C/c1cn(C(C)=O)c3ccccc13)C(=O)N2 [Compound 1g, (E)-N-(7-((1-Acetyl-1H-indol-3-yl)methylene)-6-oxo-6,7-dihydro-5H-pyrimido[4,5-b][1,4]thiazin-2-yl)-N-(4-(4-methylpiperazin-1-yl)phenyl)acetamide] |  | 1 to 10 | 1 to 10
CC(=O)Oc1ccc(/C=C2/Sc3nc(N4CCN(c5ccccn5)CC4)ncc3NC2=O)cc1 [Compound 1i, (E)-4-((6-Oxo-2-(4-(pyridin-2-yl)piperazin-1-yl)-5H-pyrimido[4,5-b][1,4]thiazin-7(6H)-ylidene)methyl)phenyl acetate] |  | 1 to 10 | 1 to 10
CC1CCN(c2ccc(Nc3ncc4c(n3)S/C(=C/c3ccc([N+](=O)[O-])cc3)C(=O)N4)cc2)CC1 [Compound 1m, (E)-2-((4-(4-Methylpiperidin-1-yl)phenyl)amino)-7-(4-nitrobenzylidene)-5H-pyrimido[4,5-b][1,4]thiazin-6(7H)-one] |  | 1 to 10 | 1 to 10
CN1CCN(c2ccc(Nc3ncc4c(n3)S/C(=C/c3ccc(C#N)cc3)C(=O)N4)cc2)CC1 [Compound 1n, (E)-4-((2-((4-(4-Methylpiperazin-1-yl)phenyl)amino)-6-oxo-5H-pyrimido[4,5-b][1,4]thiazin-7(6H)-ylidene)methyl)benzonitrile] | 274 to 276 | < 1 | < 1
O=C1Nc2cnc(N3CCN(c4ncccn4)CC3)nc2S/C1=C/c1ccc([N+](=O)[O-])cc1 [Compound 1j, (E)-7-(4-Nitrobenzylidene)-2-(4-(pyrimidin-2-yl)piperazin-1-yl)-5H-pyrimido[4,5-b][1,4]thiazin-6(7H)-one] |  | 50 to 100 | 25 to 50
CN1CCN(c2ccc(Nc3ncc4c(n3)S/C(=C/c3ccc(F)cc3)C(=O)N4)cc2)CC1 [Compound 1a, (E)-7-(4-Fluorobenzylidene)-2-(4-(4-methylpiperazin-1-yl)phenylamino)-5H-pyrimido[4,5-b][1,4]thiazin-6(7H)-one] |  | 1 to 10 | 1 to 10
CC(=O)Oc1ccc(/C=C2/Sc3nc(Nc4ccc(N5CCN(C)CC5)cc4)ncc3NC2=O)cc1 [Compound 1c, (E)-4-((2-(4-(4-Methylpiperazin-1-yl)phenylamino)-6-oxo-5H-pyrimido[4,5-b][1,4]thiazin-7(6H)-ylidene)methyl)phenyl acetate] |  | 1 to 10 | 1 to 10
CN1CCN(c2ccc(Nc3ncc4c(n3)SCC(=O)N4)cc2)CC1 [Compound 4a, 2-(4-(4-methylpiperazin-1-yl)phenylamino)-5H-pyrimido[4,5-b][1,4]thiazin-6(7H)-one] |  | 1 to 10 | 10 to 25
CC(=O)N(c1ccc(N2CCN(C)CC2)cc1)c1ncc2c(n1)S/C(=C/c1ccc(C(=O)O)cc1)C(=O)N2 [Compound 1l, (E)-4-((2-(N-(4-(4-Methylpiperazin-1-yl)phenyl)acetamido)-6-oxo-5H-pyrimido[4,5-b][1,4]thiazin-7(6H)-ylidene)methyl)benzoic acid] | 326 to 330 | 50 to 100 | 50 to 100
COc1ccc(/C=C2/Sc3nc(N(C(C)=O)c4ccc(N5CCN(C)CC5)cc4)ncc3NC2=O)cc1[N+](=O)[O-] [Compound 1d, (E)-N-(7-(4-methoxy-3-nitrobenzylidene)-6-oxo-6,7-dihydro-5H-pyrimido[4,5-b][1,4]thiazin-2-yl)-N-(4-(4-methylpiperazin-1-yl)phenyl)acetamide] |  | 1 to 10 | 1 to 10
O=C1Nc2cnc(N3CCN(c4ccccn4)CC3)nc2S/C1=C/c1ccc([N+](=O)[O-])cc1 [Compound 1e, (E)-7-(4-Nitrobenzylidene)-2-(4-(pyridin-2-yl)piperazin-1-yl)-5H-pyrimido[4,5-b][1,4]thiazin-6(7H)-one] |  | 10 to 25 | 1 to 10
CN1CCN(c2ccc(Nc3ncc4c(n3)S/C(=C/c3ccc(O)cc3)C(=O)N4)cc2)CC1 [Compound 1q, (E)-7-(4-Hydroxybenzylidene)-2-((4-(4-methylpiperazin-1-yl)phenyl)amino)-5H-pyrimido[4,5-b][1,4]thiazin-6(7H)-one] | 312 to 314 | < 1 | < 1
CC(=O)N1CCN(c2ccc(Oc3ncc4c(n3)S/C(=C/c3ccc([N+](=O)[O-])cc3)C(=O)N4)cc2)CC1 [Compound 1f, (E)-2-(4-(4-Acetylpiperazin-1-yl)phenoxy)-7-(4-nitrobenzylidene)-5H-pyrimido[4,5-b][1,4]thiazin-6(7H)-one] |  | 10 to 25 | 10 to 25
